Results taken from patent US20220089592A1, “IMIDAZO[1,2-A]PYRIDINYL DERIVATIVES AS IRAK4 INHIBITORS” (priority 2019, published 2022).

Target: T1, IRAK4 (Homo sapiens, UniProt Q9NWZ3)
T1 sequence (Q9NWZ3 1-460): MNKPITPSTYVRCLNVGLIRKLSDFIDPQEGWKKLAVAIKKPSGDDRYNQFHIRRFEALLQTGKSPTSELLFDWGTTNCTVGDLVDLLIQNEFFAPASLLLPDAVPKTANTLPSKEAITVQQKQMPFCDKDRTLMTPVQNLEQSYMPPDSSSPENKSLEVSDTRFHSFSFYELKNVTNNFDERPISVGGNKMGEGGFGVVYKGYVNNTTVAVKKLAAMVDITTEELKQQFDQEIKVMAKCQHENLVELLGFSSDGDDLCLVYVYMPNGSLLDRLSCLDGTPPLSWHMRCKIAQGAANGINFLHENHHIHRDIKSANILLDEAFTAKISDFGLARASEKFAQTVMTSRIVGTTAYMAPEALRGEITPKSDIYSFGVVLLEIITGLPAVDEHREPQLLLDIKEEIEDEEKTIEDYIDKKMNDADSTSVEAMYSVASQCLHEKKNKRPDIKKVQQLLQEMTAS
Experiment: 2-hour 1 mM ATP IRAK4 Biochemical assay (as above, but with 100 pM IRAK4 and 1 mM ATP)
Conditions: IRAK4 MSD BIOCHEMICAL (1 mM ATP) IC50 (μM), 100 pM IRAK4, 2 hours
Procedure: The 2-hour 10 μM ATP Biochemical Assay employs a MesoScale Detection (MSD) format.
The activity is quenched with 11 μl of 70 mM EDTA, pH 8.
To detect the phosphorylated biotinylated peptide substrate, 30 μl of the quenched reaction mixture is added to equivalent wells of a 384 well streptavidin coated MesoScale plate (Meso Scale Discovery #L21SA-1). After a 1 hour incubation of the plate for 1 hour at room temperature with gentle mixing, the plate wells are washed 3 times with 50 mM Tris, pH 7.5, 150 mM NaCl, 0.02% Tween-20.
A 25 μl volume of 1:500 anti-P-Threonine Rabbit polyclonal Antibody plus 1:500 Goat-anti-Rabbit Sulfo Tag Antibody (Meso Scale Discovery R32AB-1) in 50 mM Tris, pH 7.5, 150 mM NaCl, 0.02% Tween-20 plus 2% BSA is then added to each well. After a 1-hour incubation of the plate for 1 hour at room temperature with gentle mixing, the plate wells are washed, 3 times with 50 mM Tris, pH 7.5, 150 mM NaCl, 0.02% Tween-20. A 40 μl volume of 2×MSD Read Buffer (Meso Scale Discovery R92TC-1) is added to each well, and the plate is read immediately in an MSD Plate Reader (Meso Scale Discovery).
The 2-hour 1 mM ATP IRAK4 Biochemical assay was performed as described above, but with 100 pM IRAK4 and 1 mM ATP.

## CC(C)Oc1c(NC(=O)c2cccc3ncnn23)cn2cc(C34COC(C)(C3)C4)nc2c1F [Example 434, N-(8-fluoro-7-isopropoxy-2-(1-methyl-2-oxabicyclo[2.1.1]hexan-4-yl)imidazo[1,2-a]pyridin-6-yl)-[1,2,4]triazolo[1,5-a]pyridine-5-carboxamide]
  IC50: 0.004 µM

## COc1ccccc1C(=O)Nc1cn2cc(C34COC(CF)(C3)C4)nc2c(OC(C)C)n1 [Example 483, N-(2-(1-(fluoromethyl)-2-oxabicyclo[2.1.1]hexan-4-yl)-8-isopropoxyimidazo[1,2-a]pyrazin-6-yl)-2-methoxybenzamide 2,2,2-trifluoroacetate]
  IC50: 0.022 µM

## COc1ccccc1C(=O)Nc1cn2cc(Cl)nc2cc1OC(C)C [Example 400, N-(2-chloro-7-isopropoxyimidazo[1,2-a]pyridin-6-yl)-2-methoxybenzamide 2,2,2-trifluoroacetate]
  IC50: 0.054 µM

## CC(C)Oc1cc2nc(Cl)cn2cc1NC(=O)c1cccc(C(F)F)n1 [Example 294, N-(2-chloro-7-isopropoxyimidazo[1,2-a]pyridin-6-yl)-6-(difluoromethyl)picolinamide]
  IC50: 0.002 µM

## COc1nc(NC(=O)c2cccc(C(F)F)n2)cn2cc(C34CCOC(C)(C3)C4)nc12 [Example 555, 6-(difluoromethyl)-N-(8-methoxy-2-(1-methyl-2-oxabicyclo[3.1.1]heptan-5-yl)imidazo[1,2-a]pyrazin-6-yl)picolinamide]
  IC50: 0.007 µM

## CCOc1cc2nc(CC3CCOC3)cn2cc1NC(=O)c1cccc(C(F)F)n1 (stereo not drawn) [Example 14, 6-(difluoromethyl)-N-(7-ethoxy-2-((tetrahydrofuran-3-yl)methyl)imidazo[1,2-a]pyridin-6-yl)picolinamide]
  IC50: 0.001 µM

## CC(C)Oc1cc2nc(C34CC(F)(C3)C4)cn2cc1NC(=O)c1cccc(C(F)F)n1 [Example 258, 6-(difluoromethyl)-N-(2-(3-fluorobicyclo[1.1.1]pentan-1-yl)-7-isopropoxyimidazo[1,2-a]pyridin-6-yl)picolinamide]
  IC50: 0.001 µM

## COc1nc(NC(=O)c2cccc(C)n2)cn2cc(C3CCOCC3)nc12 [Example 455, N-(8-methoxy-2-(tetrahydro-2H-pyran-4-yl)imidazo[1,2-a]pyrazin-6-yl)-6-methylpicolinamide]
  IC50: 0.043 µM

## CCOc1cc(NC(=O)c2cccc(C(F)F)n2)cn2cc([C@@H]3C4COC[C@H]43)nc12 (relative stereo) [Example 306, N-(2-((1R*,5S*,6s*)-3-oxabicyclo[3.1.0]hexan-6-yl)-8-ethoxyimidazo[1,2-a]pyridin-6-yl)-6-(difluoromethyl)picolinamide]
  IC50: 0.007 µM

## CC12CC(c3cn4cc(NC(=O)c5cccc(C(F)F)n5)c(OC(F)F)cc4n3)(CO1)C2 [Example 395, N-(7-(difluoromethoxy)-2-(1-methyl-2-oxabicyclo[2.1.1]hexan-4-yl)imidazo[1,2-a]pyridin-6-yl)-6-(difluoromethyl)picolinamide 2,2,2-trifluoroacetate]
  IC50: 0.001 µM

## Cn1ccc(C(=O)Nc2cc(OC(F)F)c3nc(C45COC(C)(C4)C5)cn3c2)n1 [Example 423, N-(8-(difluoromethoxy)-2-(1-methyl-2-oxabicyclo[2.1.1]hexan-4-yl)imidazo[1,2-a]pyridin-6-yl)-1-methyl-1H-pyrazole-3-carboxamide 2,2,2-trifluoroacetate]
  IC50: 0.092 µM

## CCc1cc(NC(=O)c2cccc(C(F)F)n2)cn2cc(C3CCOCC3)nc12 [Example 290, 6-(difluoromethyl)-N-(8-ethyl-2-(tetrahydro-2H-pyran-4-yl)imidazo[1,2-a]pyridin-6-yl)picolinamide]
  IC50: 0.013 µM

## CC(C)Oc1nc2nc(C34COC(C)(C3)C4)cn2cc1NC(=O)c1cccn(C(F)F)c1=O [Example 496, 1-(difluoromethyl)-N-(7-isopropoxy-2-(1-methyl-2-oxabicyclo[2.1.1]hexan-4-yl)imidazo[1,2-a]pyrimidin-6-yl)-2-oxo-1,2-dihydropyridine-3-carboxamide 2,2,2-trifluoroacetate]
  IC50: 0.001 µM

## CCCOc1nc(NC(=O)c2ccccc2OC)cn2cc(C34COC(C)(C3)C4)nc12 [Example 335, 2-methoxy-N-(2-(1-methyl-2-oxabicyclo[2.1.1]hexan-4-yl)-8-propoxyimidazo[1,2-a]pyrazin-6-yl)benzamide]
  IC50: 0.011 µM

## COCc1cc2nc(C3CCOCC3)cn2cc1NC(=O)c1cccc(C)n1 [Example 371, N-(7-(methoxymethyl)-2-(tetrahydro-2H-pyran-4-yl)imidazo[1,2-a]pyridin-6-yl)-6-methylpicolinamide 2,2,2-trifluoroacetate]
  IC50: 0.035 µM

## O=C(Nc1cn2cc(C3CCOCC3)nc2cc1OCCF)c1cccc(C(F)F)n1 [Example 188, 6-(difluoromethyl)-N-(7-(2-fluoroethoxy)-2-(tetrahydro-2H-pyran-4-yl)imidazo[1,2-a]pyridin-6-yl)picolinamide]
  IC50: 0.001 µM

## CC(C)Cc1cc2nc(C3CCOCC3)cn2cc1NC(=O)c1cccc(C(F)F)n1 [Example 404, 6-(difluoromethyl)-N-(7-isobutyl-2-(tetrahydro-2H-pyran-4-yl)imidazo[1,2-a]pyridin-6-yl)picolinamide]
  IC50: 0.004 µM

## COc1nc(NC(=O)c2cccc3c2OCC3)cn2cc(C34CCC(C)(C3)OC4)nc12 (stereo not drawn) [Example 469, N-(8-methoxy-2-(1-methyl-2-oxabicyclo[2.2.1]heptan-4-yl)imidazo[1,2-a]pyrazin-6-yl)-2,3-dihydrobenzofuran-7-carboxamide 2,2,2-trifluoroacetate]
  IC50: 0.008 µM

## COc1ncccc1C(=O)Nc1cn2cc(C34COC(C)(C3)C4)nc2nc1OC1CC1 [Example 505, N-(7-cyclopropoxy-2-(1-methyl-2-oxabicyclo[2.1.1]hexan-4-yl)imidazo[1,2-a]pyrimidin-6-yl)-2-methoxynicotinamide 2,2,2-trifluoroacetate]
  IC50: 0.007 µM

## COc1c(NC(=O)c2cccc(C(F)F)n2)cn2cc(C3CCOCC3)nc2c1C [Example 427, 6-(difluoromethyl)-N-(7-methoxy-8-methyl-2-(tetrahydro-2H-pyran-4-yl)imidazo[1,2-a]pyridin-6-yl)picolinamide]
  IC50: 0.003 µM

## CC1(COc2cc3nc(C4CCOCC4)cn3cc2NC(=O)c2cccc(C(F)F)n2)CCOC1 (stereo not drawn) [Example 197, 6-(difluoromethyl)-N-(7-((3-methyltetrahydrofuran-3-yl)methoxy)-2-(tetrahydro-2H-pyran-4-yl)imidazo[1,2-a]pyridin-6-yl)picolinamide]
  IC50: 0.004 µM

## COc1nc(NC(=O)c2cccc3c2OCC3(F)F)cn2cc(C34COC(C)(C3)C4)nc12 [Example 446, 3,3-difluoro-N-(8-methoxy-2-(1-methyl-2-oxabicyclo[2.1.1]hexan-4-yl)imidazo[1,2-a]pyrazin-6-yl)-2,3-dihydrobenzofuran-7-carboxamide]
  IC50: 0.008 µM

## COc1nc(NC(=O)c2cccc(C(F)(F)F)n2)cn2cc(C34COC(C)(C3)C4)nc12 [Example 449, N-(8-methoxy-2-(1-methyl-2-oxabicyclo[2.1.1]hexan-4-yl)imidazo[1,2-a]pyrazin-6-yl)-6-(trifluoromethyl)picolinamide 2,2,2-trifluoroacetate]
  IC50: 0.064 µM

## CCC(C)Oc1c(NC(=O)c2cccnc2OC)cn2cc(C34COC(C)(C3)C4)nc2c1F (stereo not drawn) [Example 326, N-(7-(sec-butoxy)-8-fluoro-2-(1-methyl-2-oxabicyclo[2.1.1]hexan-4-yl)imidazo[1,2-a]pyridin-6-yl)-2-methoxynicotinamide]
  IC50: 0.012 µM
